From US11344601B2, “Tumor microenvironment-related target TAK1 and application thereof in inhibition of tumor” (Shanghai Institutes for Biological Sciences, Chinese …, priority 2017, dated 2022)

Assays:
[1] = tested on: PC3/PSC27 xenograft tumors; assay: Time-extended preclinical treatment, survival of PC3/PSC27 tumor-bearing mice; format: in vivo
Description: In the preclinical chemotherapy trial, mice subcutaneously transplanted with tumors were fed standard experimental diet. After 2 weeks, the chemotherapeutics mitoxantrone (dose of 0.2 mg/kg) and/or SASP inhibitors (500 μl, dose of 10 mg/kg, RAD001, SB203580 and 5Z-7 were purchased from Tocris; LYTAK, purchased from Lilly Co ((Indianapolis, Ind.), 5 mg/kg) were administrated intraperitoneally. The timepoint was the first day of Week 3, 5, 7, and the whole course of treatment was composed of three cycles of administration, each cycle lasted for 2 weeks. After the course of treatment, mouse […] was collected for tumor measurement and histological analysis. Each mouse received cumulatively 0.6 mg mitoxantrone/kg body weight and 30 mg SASP inhibitor/kg body (15 mg/kg body weight for LYTAK1). […]
Although there was no ectopic metastasis of cancer cells, the current inventor questions whether the microenvironment causes other pathological consequences other than tumor growth and drug resistance. To this end, the present inventor evaluated the survival of multiple groups of animals under a batch of time-extended preclinical treatment conditions to determine the objective results of tumor progression. All animals were monitored for tumor volume and recognized as severe disease when the tumor volume reached a certain upper limit (size 2000 mm^3).

[2] = tested on: SASP effectors; assay: Genome-wide expression microarray of SASP effectors in PSC27 cells; format: cell-based, human; settings: bleomycin in combination with 5Z-7 vs bleomycin alone
Description: FIG. 34. After simultaneous treatment of PSC27 cells with bleomycin and/or 5Z-7, SB203580 (SB) and RAD001, total RNA was analyzed by microarray for expression-spectrum.
c. Experimental Treatment In Vitro • 100 nM docetaxel (DTX), 100 nM paclitaxel (PTX), 200 nM vincristine (VCR), 50 μg/ml bleomycin (BLEO), 1 μM mitoxantrone (MIT), or 10 Gy ^137CS ionizating radiation (γ-radiation at 743 rad/min, RAD) was added to the culture medium when PSC27 cells grown to 80% (PSC27-Pre) to produce cell damage. After drug treatment for 6 hours, the cells were simply washed by PBS for 3 times and kept in the culture medium for 7 to 10 days, followed by subsequent experiments. 2. Plasmid Preparation and Lentiviral Transfection • Full-length human IKKα and Flag were cloned as a fusion protein between the restriction sites BamHI and XbaI in the expression vector pCR3.1. Full-length human mTOR and GST were cloned as a fusion protein between a pair of NotI restriction sites in the expression vector pcDNA3. […] FV1000 laser scanning confocal microscopy (Olympus) was used to obtain cellular confocal fluorescence images to determine the extent of DNA damage. • Antibody anti-TAK1 used for histological IHC staining in clinical prostate, non-small cell lung cancer patients and breast cancer patients, was purchased from Proteintech, idib. […]

COc1cc(O)c2c(c1)/C=C/C[C@H](O)[C@H](O)C(=O)/C=C\C[C@H](C)OC2=O [5Z-7, 5z-7-oxozeaenol]
survival of mice ([1]; 5Z-7 alone): only slightly prolonged
prolongation of disease-free survival ([1]; MIT/5Z-7 combination vs mitoxantrone alone, severe disease at tumor size 2000 mm^3): about 50%
expression of SASP effectors [2]: significantly inhibited
